In patent US20180230160A1, “2-AMINO-7A-PHENYL-3,4,4A,5,7,7A-HEXAHYDROFURO[3,4-B]PYRIDINES AS BACE1 INHIBITORS” (H. Lundbeck A/S, priority 2015, published 2018):
Where two headings read alike, the source gives them in different places.

How the values were obtained:
human BACE1 [1] = molecular target: T1, human BACE1 (Homo sapiens, UniProt P56817); test: BACE1 binding assay (SPA-based radioligand binding); design: biotin (biotinylated form); made in house; host or cells: Freestyle HEK293 cells; conditions: pH 4.5, 10 nM radioligand, Ki=IC50/(1+L/Kd)
T1 sequence (P56817 46-501): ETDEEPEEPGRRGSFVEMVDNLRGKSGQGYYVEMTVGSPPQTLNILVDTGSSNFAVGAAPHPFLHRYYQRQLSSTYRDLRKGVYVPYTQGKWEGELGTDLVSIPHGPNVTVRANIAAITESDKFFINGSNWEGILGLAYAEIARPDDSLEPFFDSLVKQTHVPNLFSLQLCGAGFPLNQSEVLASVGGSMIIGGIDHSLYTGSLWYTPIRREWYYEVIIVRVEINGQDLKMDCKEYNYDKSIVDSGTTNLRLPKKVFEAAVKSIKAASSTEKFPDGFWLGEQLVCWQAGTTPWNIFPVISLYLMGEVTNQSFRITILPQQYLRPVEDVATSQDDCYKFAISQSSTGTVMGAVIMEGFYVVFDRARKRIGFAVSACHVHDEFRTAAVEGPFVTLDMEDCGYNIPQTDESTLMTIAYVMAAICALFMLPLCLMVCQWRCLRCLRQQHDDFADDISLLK
Description: The binding assay was performed as SPA-based assay using a biotinylated form of human BACE1 recombinantly expressed and subsequently purified from Freestyle HEK293 cells. The binding assay was run in a 50 mM sodium acetate buffer, pH 4.5 containing 50 mM NaCl and 0.03% Tween-20 in white clear bottom 384 plates (Corning #3653). 10 nM (final concentration) radioligand ([^3H]—N-((1S,2R)-1-benzyl-3-cyclopropylamino-2-hydroxy-propyl)-5-(methanesulfonyl-methyl-amino)-N—((R)-1-phenyl-ethyl)-isophthalamide) (TRQ11569 purchased from GE Healthcare) was mixed with test compound at a given concentration, 6 nM (final concentration) human BACE1 and 25 μg Streptavidin coated PVT core SPA beads (RPNQ0007, GE Healthcare Life Sciences) in a total volume of 40 μl. Several concentrations of each test compound were tested in the assay for […] determination. The plates were incubated for one hour at room temperature and counted in a Wallac Trilux counter. Total and non-specific binding were determined using buffer and 1 μM (final concentration) of the high affinity BACE1 reference inhibitor (S)-6-[3-chloro-5-(5-prop-1-ynyl-pyridin-3-yl)-thiophen-2-yl]-2-imino-3,6-dimethyl-tetrahydro-pyrimidin-4-one, respectively. For each test compound, a 1050 value (the concentration mediating 50% inhibition of the specific binding of the radioligand) was determined from concentration-response curve and used to calculate the Ki from the equation Ki=IC50/(1+L/Kd), where L and Kd are the final concentration of the radioligand used in the assay and the dissociation constant of the radioligand, respectively. The Kd of the radioligand was determined from saturation binding experiments.

human BACE1 [2] = molecular target: T1, human BACE1; test: BACE1 efficacy assay (FRET-based, commercial BACE1 kit); format: biochemical; design: purchased Life Technologies P2985; conditions: 10 μM test compound
Description: The efficacy assay was performed as a FRET-based assay using a commercially available BACE1 kit (Life Technologies, P2985). 2 μl test compound at 10 μM (final concentration) and 15 μl BACE1 enzyme from the kit (final concentration 3 nM) were preincubated for 15 minutes at room temperature before addition of 15 μl of substrate from the kit (250 nM final concentration) and incubated for additional 90 minutes at room temperature. The assay plate was subsequently read in a Pherastar (Ex540/Em590). The enzyme activity observed in presence of test compound were normalized to the enzyme activity observed in presence of buffer and 10 μM (final concentration) of the high affinity BACE1 reference inhibitor (S)-6-[3-Chloro-5-(5-prop-1-ynyl-pyridin-3-yl)-thiophen-2-yl]-2-imino-3,6-dimethyl-tetrahydropyrimidin-4-one, respectively. The efficacy of the test compounds was evaluated at 10 μM (final concentration) and defined as the percent inhibition of the enzyme activity using the equation % inhibition=100%−normalized enzyme activity in percent.

P-gp (MDR1) = test: MDCK-MDR1 assay (permeability, efflux ratio); format: in vitro ADME; conditions: dog, Papp BA/Papp AB, 60-minute incubation
Description: The permeability of the test compounds was assessed in MDCK-MDR1 cells that were cultured to confluency (4-6 days) in a 96 transwell plate. Test compounds were diluted with the transport buffer (HBSS+1% BSA) to a concentration of 0.5 μM and applied to the apical or basolateral side of the cell monolayer. Permeation of the test compounds from A to B direction or B to A direction was determined in triplicate over a 60-minute incubation time at 37° C. and 5% CO2 with a relative humidity of 95%. Test compounds were quantified by LC-MS/MS analysis based on the peaks area ratios of analyte/IS in both the receiver and donor wells of the transwell plate. The apparent permeability coefficient Papp (cm/s) was calculated using the equation: […]
Where dCr/dt is the cumulative concentration of compound in the receiver chamber as a function of time (μM/s); Vr is the solution volume in the receiver chamber (0.05 mL on the apical side; 0.25 mL on the basolateral side); A is the surface area for the transport, i.e. 0.0804 cm^2 for the area of the monolayer; CO is the initial concentration in the donor chamber (μM).

[3] = Compound exposure in rat brain and plasma after oral dosing (DMPK analysis); format: in vivo; conditions: male, Sprague Dawley, 3 hours post dose; for concentration at 3 h: read-out: Exp (exposure); for Kp at 3 h: brain/plasma, read-out: Brain/Plasma ratio
Description: (§1) Young adult Male Sprague Dawley rats of approximately 250 g weight were purchased from Charles River and received 0-30 mg/kg of vehicle (10% HP betaCD+1M MeSO4, pH 2.5) or test compounds (dissolved in vehicle) only by oral gavage (p.o). The compounds are dosed at a volume of 5 ml/kg. Cohorts of 5-10 animals were established for each treatment condition.
(§2) At T=180 minutes after initial dosing the animals were stunned and decapitated with a guillotine. Trunk-blood was sampled in EDTA coated tubes after decapitation of the animal. The blood was centrifuged at 2200G at 4° C. for 15 minutes and the plasma was collected and frozen at −80° C. The blood was aliquoted for Aβ ELISA and DMPK analysis. Immediately following sacrifice, the brain was extracted and split into 2 halves. The right hemibrains were snap frozen on dry ice and stored at −80° C. The left half was dissected; with the front forebrain taken for Aβ ELISA and the remainder used for DMPK analysis. These samples were also snap frozen on dry ice and stored at −80° C. until use for analysis.
The results of the administration of representative Compounds of Examples 1, 2, 5, […], of brain and plasma samples collected at 3 hours post dose and then following exposures, as described above, are tabulated below.

Aβ40 peptide = test: Assessment of Aβ peptide levels in rat brain and plasma following BACE1 inhibition (Aβ40 ELISA); format: in vivo; conditions: 3 hours post dose, vs vehicle
Description: Assessment of Aβ Peptide Levels in Rat Brain and Plasma Following BACE1 Inhibition. Animals.
as §1, §2
The cortex samples were thawed slightly on wet ice before they were homogenized with a small volume dispersing instrument (T10 basic ULTRA-TURRAX®) which was set at speed 5 for approximately 5-7 sec. The tissue was processed in a 10 times volume of the weight, for example 100 mg of tissue was homogenized in 1000 μL of Homogenization buffer. Homogenization buffer: 50 ml Milli Q water+50 nM NaCl+0.2% Diethylamin (DEA)+1 tablet of Complete Protease inhibitor cocktail+1 nM 4-(2-aminoethyl) benzenesulfonyl fluoride hydrochloride irreversible serine protease inhibitor (AEBSF).
After homogenization 450 μL aliquots of the samples are collected into a 1.5 ml Eppendorf tube and placed on wet ice, 0.5% NP-40 (50 ul) was added to all samples and then they were incubated on ice for 30 min. After which all samples were sonicated using an Ultrasonic homogenizer with 20 kHz homogeneous sound (SONOPLUS HD2070, Bandelin Electronic) 10 pulse set at 12-13% power to extract all the Aβ species. The samples were then centrifuged (Ole Dich 157 MPRF Micro centrifuge) at 20000G for 20 minutes at 4° C. After centrifugation 285 μL of the supernatant was pipetted into 600 μL microtubes tubes and neutralized with 15 μL of 1M Tris-HCL buffer.
WAKO 294-62501 Human/Rat Abeta amyloid (40) kit was used for all ELISA analyses. 30 μL plasma samples or 30 μL of the cortex supernatants generated as described above were placed in 600 μL microtubes tubes on wet ice. To this 30 μL of 8M urea (AppliChem A1049, 9025) was added to generate a 2-fold dilution. Both plasma and cortex supernatants were incubated on ice for 30 min. Standard rows were prepared from the standard peptide stock provided in the kit and standard diluent containing 1.6M urea (200 μL 8M urea+800 μL of standard diluent) and 0.8M urea (400 μL 8M Urea+3600 μL Standard diluent). A serial 2-fold dilution of Aβ40 from 100 pmol/ml to 0 pmol/L was prepared for the assay.
After incubation with urea, all samples were further diluted by addition of 5 times standard diluent from the Kit. This was done by adding 240 μL Standard Diluent to 60 μL sample/urea mixture, which was then mixed well. 100 μL of each diluted sample was pipetted into designated wells of the ELISA plate in duplicates. The plate was then covered and incubated overnight at 4° C. The following day, the ELISA kit was brought to room temperature before use. The incubated plate was washed 5 times with the 20× washing solution diluted in Milli Q water. 100 μL HRP-conjugate was applied to each well, and the plate was covered and incubates at 4° C. for 1 hr. The wash was repeated again for 5 times. 100 μL 3,3′,5,5′-Tetramethylbenzidine (TMB) solution was applied to each well and the plate was covered and incubated in the dark at room temperature for 30 minutes. […]

Row | Compound | Ki (human BACE1 [1]) [nM] | inhibition at 10 µM (human BACE1 [2]) [%] | efflux ratio at 60 min, 0.5 μM (P-gp (MDR1)) | concentration at 3 h ([3]; Brain, 10 mg/kg p.o.) [ng/g] | concentration at 3 h ([3]; Brain, 30 mg/kg p.o.) [ng/g] | concentration at 3 h ([3]; Plasma, 10 mg/kg p.o.) [ng/g] | concentration at 3 h ([3]; Plasma, 30 mg/kg p.o.) [ng/g] | Kp at 3 h ([3]; 10 mg/kg p.o.) | Kp at 3 h ([3]; 30 mg/kg p.o.) | Aβ40 reduction (Aβ40 peptide; Brain, 10 mg/kg p.o.) [%] | Aβ40 reduction (Aβ40 peptide; Brain, 30 mg/kg p.o.) [%] | Aβ40 reduction (Aβ40 peptide; Plasma, 10 mg/kg p.o.) [%] | Aβ40 reduction (Aβ40 peptide; Plasma, 30 mg/kg p.o.) [%]
1 | NC1=N[C@@]2(c3cc(NC(=O)c4ccc(F)cn4)ccc3F)COC[C@H]2C[C@@]1(F)CF [Example 20, N-(3-((3S,4aS,7aS)-2-amino-3-fluoro-3-(fluoromethyl)-3,4,4a,5-tetrahydrofuro[3,4-b]pyridin-7a-yl)-4-fluorophenyl)-5-fluoropicolinamide] | 140 | 103 | 0.71 | – | – | – | – | – | – | – | – | – | –
2 | NC1=N[C@@]2(c3cc(NC(=O)c4ccc(F)cn4)ccc3F)COC[C@H]2C[C@]1(F)CF [Example 16, N-(3-((3R,4aS,7aS)-2-amino-3-fluoro-3-(fluoromethyl)-3,4,4a,5-tetrahydrofuro[3,4-b]pyridin-7a-yl)-4-fluorophenyl)-5-fluoropicolinamide] | 88 | 110 | 0.97 | – | – | – | – | – | – | – | – | – | –
3 | COc1cnc(C(=O)Nc2ccc(F)c([C@]34COC[C@@]3(F)C[C@](C)(F)C(N)=N4)c2)cn1 [Example 5, N-(3-((3S,4aR,7aS)-2-amino-3,4a-difluoro-3-methyl-3,4,4a,5,7,7a-hexahydrofuro[3,4-b]pyridin-7a-yl)-4-fluorophenyl)-5-methoxypyrazine-2-carboxamide] | 17 | – | 0.91 | 204 | 695 | 174 | 598 | 1.17 | 1.16 | 40 | 47 | 41 | 45
4 | NC1=N[C@@]2(c3cc(NC(=O)c4ccc(F)cn4)cc(F)c3F)COC[C@H]2C[C@@]1(F)CF [Example 23, N-[3-[(3S,4aS,7aS)-2-amino-3-fluoro-3-(fluoromethyl)-4,4a,5,7-tetrahydrofuro[3,4-b]pyridin-7a-yl]-4,5-difluoro-phenyl]-5-fluoro-pyridine-2-carboxamide] | 200 | 103 | 0.89 | – | – | – | – | – | – | – | – | – | –
5 | COc1ccc(C(=O)Nc2cc(F)c(F)c([C@]34COC[C@H]3C[C@](F)(CF)C(N)=N4)c2)nc1 [Example 17, N-[3-[(3R,4aS,7aS)-2-amino-3-fluoro-3-(fluoromethyl)-4,4a,5,7-tetrahydrofuro[3,4-b]pyridin-7a-yl]-4,5-difluoro-phenyl]-5-methoxy-pyridine-2-carboxamide] | 99 | 105 | 1.25 | – | – | – | – | – | – | – | – | – | –
6 | C[C@]1(F)C[C@]2(F)COC[C@]2(c2cc(NC(=O)c3ccc(F)cn3)ccc2F)N=C1N [Example 2, N-(3-((3S,4aR,7aS)-2-amino-3,4a-difluoro-3-methyl-3,4,4a,5,7,7a-hexahydrofuro[3,4-b]pyridin-7a-yl)-4-fluorophenyl)-5-fluoropicolinamide] | 31 | – | 1.27 | 37 | 136 | 69 | 244 | 0.54 | 0.56 | 25 | 24 | 48 | 47
7 | COc1cnc(C(=O)Nc2cc(F)c(F)c([C@]34COC[C@H]3C[C@](F)(CF)C(N)=N4)c2)cn1 [Example 18, N-[3-[(3R,4aS,7aS)-2-amino-3-fluoro-3-(fluoromethyl)-4,4a,5,7-tetrahydrofuro[3,4-b]pyridin-7a-yl]-4,5-difluoro-phenyl]-5-methoxy-pyrazine-2-carboxamide] | 110 | 105 | 1.31 | – | – | – | – | – | – | – | – | – | –
